Like-named read-outs stand apart in the source and are kept apart here. No end group written: not given here.
What was measured:
Format in all cases: cell-based, Human
[1] = system: AU565 breast cancer cell line (Her2/neu and p53 positive)
Description: (§1) Experimental design: The experimental design (see FIG. 1) was to seed the HCC38 breast cancer cell line (BCCL) with the p1978 pep-tide in order to determine the effects of the peptide on cell growth. The HCC38 cell line was chosen because of its triple negative receptor status. […] They are more likely to recur than other subtypes of breast cancer.
(§2) The 184B5 (normal breast tissue cells) were seeded to serve as a negative control while the AU565 BCCL, a cell line with a positive Her2/neu and p53 receptor status, was inoculated to serve as a positive control. In the initial phase, treatment cell lines were treated with 8.26 μg/ml of p1978. The con-centration corresponds closely to the average SMR3B (the parent protein of the p1978 peptide), concentration, plus one standard deviation found in healthy breast tissues. A second experiment was performed doubling the concentration of 1978 to 16.52 μg/ml. FIG. 1 represents a schematic of the design used for the study.
(§3) Corresponding unseeded cell lines served as controls. The controls were treated with a placebo containing 1.0 ml of sterile PBS (for cell culture). An expanded dose-response experiment was not performed due to limited resources. The experiment ended 48 hours after seeding. The outcome variables of this study were total cell count, live cell count and percent viability.
(§4) Cell lines: Human breast cell lines HCC38 (HCC38 BL (ATCC® CRL-2346™), AU565 (ATCC® CRL2351™) and 184B5 (ATCC® CRL-8799™) were purchased from the American Type Culture Collection. Cell line descriptions are summarized in Table 1.
(§5) Cell growth procedures: The aforementioned cell lines were thawed in a 37.0 water bath with gentle agitation. The vials were decontaminated and the cells were added drop wise to 9 ml of their prospective culture media while gently mixing. The cell suspension was centrifuged at 1,000 rpm for five minutes. The supernatant was carefully removed and the cell pellet was resuspended in 5.0 ml of media. Each cell line was checked for viability using a hemocytometer and a cell count/ml was calculated. Nine plates were seeded of each cell line at a total of 1.0×10^6 cells/100 mm plates. Once the plates reached 30% confluency, nine plates of each cell line were treated with 8.26 μg/ml (4.95 μM) of p1978 peptide and a set of nine control plates were treated with 1.0 ml of phosphate buffered saline (PBS). They were incubated and harvested by trypsinization in 48 hours. The cells from each plate were counted for the total number of cells and were assessed for viability using the trypan blue exclusion test of cell viability. The same procedures were repeated for the higher 16.52 ug/ml (9.88 uM) dose.
(§6) Statistics: Data was tabulated using SPSS statistical software. The outcome variables of this study were total cell count, live cell count and percent viability. To assess these variables, descriptive statistics were employed to compare p1978 treated cells relative to the control cells. The approach consisted mainly of bar charts, mean cell counts and mean percentages. The cellular growth rate was determined by subtracting the resultant or final cell count from its baseline value. The difference was divided by 48 hours the growing time for the cells. The results were expressed in cells/hour.
(§7) A homoscedastic univariate t-test was computed for differences between the treated and the control groups. The arithmetic mean value of the control group was used as the “cut-point” value. The alpha level was p<0.05.

in vitro = conditions: human
Description: as §1, §2, §3, §4, §5, §6, §7

[2] = system: 184B5 cell line (normal breast tissue cells); assay: in vitro
Description: as §1, §2, §3, §4, §5, §6, §7

[3] = system: HCC38 breast cancer cell line (triple negative); assay: Cell growth: total and live cell count, trypan blue exclusion viability, 48 hours after seeding with p1978; design: key to Total growth rate, Treated / Live growth rate, Treated: N.G. = Negative Growth
Description: as §1, §2, §3, §4, §5, §6, §7

[4] = AU565, 8.26 ug/ml p1978, 48 hours
[5] = AU565, 8.26 μg/ml p1978, over 48 hours
[6] = AU565, 16.52 μg/ml p1978, 48 hours
[7] = AU565, 16.52 μg/ml p1978, 48 hours, footnote: * represents 10^5
[8] = AU565, 16.52 μg/ml p1978, over 48 hours
[9] = 184B5, 8.26 ug/ml p1978, 48 hours
[10] = 184B5, 8.26 μg/ml p1978, over 48 hours
[11] = 184B5, 16.52 ug/ml p1978, 48 hours
[12] = 184B5, 16.52 μg/ml p1978, 48 hours
[13] = 184B5, 16.52 μg/ml p1978, over 48 hours
[14] = HCC38, 8.26 μg/ml p1978, over 48 hours
[15] = HCC38, 16.52 μg/ml p1978, 48 hours
[16] = HCC38, 16.52 μg/ml p1978, over 48 hours

Sequence: PRGPYPPGPLAPPQ [p1978, PRGPYPPGPLAPPQ]
- live cell count higher than control group [1, 4]: 11.7%
- total cell count higher than control group [1, 4]: 31.5%
- Live growth rate, Treated [1, 5]: 0.77 10^4 cells/hour
- Total growth rate, Treated [1, 5]: 1.38 10^4 cells/hour
- knockdown effect on cell count ([1]; AU565, 16.52 ug/ml p1978): No knockdown effect
- increase in living cell count ([1]; AU565, 16.52 ug/ml p1978, 48 hours): 23.1%
- % Live, Treated [1, 6]: 75%
- Live × 10^6 (mean cell count with standard deviation), Treated [1, 6]: 1.60 (±0.42) × 10^6
- Live × 10^6, Treated - Control [1, 6]: 0.30 × 10^6
- Total × 10^6 (mean cell count with standard deviation), Treated [1, 6]: 2.14 (±0.50) × 10^6
- Total × 10^6, Treated - Control [1, 6]: 0.27 × 10^6
- Live, Treated - Baseline [1, 7]: 0.24* 10^5
- Total, Treated - Baseline [1, 7]: 0.24* 10^5
- Live growth rate, Treated [1, 8]: 0.50 10^4 cells/hour
- Total growth rate, Treated [1, 8]: 0.50 10^4 cells/hour
- percent viability, treated ([1]; human, 48 hours, 8.26 ug/ml): 61%
- viability at 48 hours, 8.26 μg/ml (in vitro): 91%
- viability at 48 hours, 16.52 μg/ml (in vitro): 95 to 98%
- difference in growth rate between the treated and the controls ([2]; 184B5, 8.26 ug/ml p1978): almost negligible difference
- higher living cell count for the treated cells as compared to the control [2, 9]: 3.5%
- higher total cell count for the treated cells as compared to the control [2, 9]: 7.5%
- Live growth rate, Treated [2, 10]: 0.59 10^4 cells/hour
- Total growth rate, Treated [2, 10]: 1.11 10^4 cells/hour
- effect on cell viability or growth rate ([2]; 184B5, 16.52 ug/ml p1978): no effect
- increase in the living cell count for the treated cells as compared to the control [2, 11]: 63.7%
- increase in the total cell count for the treated cells as compared to the control [2, 11]: 22.4%
- % Live, Treated [2, 12]: 98%
- Live × 10^6 (mean cell count with standard deviation), Treated [2, 12]: 4.82 (±0.75) × 10^6
- Live × 10^6, Treated - Baseline [2, 12]: 2.57 × 10^6
- Live × 10^6, Treated - Control [2, 12]: 1.00 × 10^6
- Total × 10^6 (mean cell count with standard deviation), Treated [2, 12]: 4.91 (±0.63) × 10^6
- Total × 10^6, Treated - Baseline [2, 12]: 2.62 × 10^6
- Total × 10^6, Treated - Control [2, 12]: 0.90 × 10^6
- Live growth rate, Treated [2, 13]: 2.77 10^4 cells/hour
- Total growth rate, Treated [2, 13]: 7.83 10^4 cells/hour
- reduction of total cell count versus control ([3]; HCC38, 8.26 ug/ml p1978, 48 hours): 20.8%
- reduction of living cell count versus control ([3]; HCC38, 8.26 ug/ml p1978, 48 hours, t=−3.25, p 0.08): 33.2%
- Live growth rate, Treated [3, 14]: N.G.
- Total growth rate, Treated [3, 14]: N.G.
- growth rate difference, treated versus control ([3]; HCC38, 16.52 ug/ml p1978): −38%
- average total number of cells higher in control than in treated (knockdown effect) ([3]; HCC38, 16.52 ug/ml p1978, 48 hours): 22.4%
- % Live, Treated [3, 15]: 92%
- Live × 10^6 (mean cell count with standard deviation), Treated [3, 15]: 1.87 (±0.43) × 10^6
- Live × 10^6, Treated - Baseline [3, 15]: 1.10 × 10^6
- Live × 10^6, Treated - Control [3, 15]: −0.67 × 10^6
- Total × 10^6 (mean cell count with standard deviation), Treated [3, 15]: 2.03 (±0.62) × 10^6
- Total × 10^6, Treated - Baseline [3, 15]: 1.03 × 10^6
- Total × 10^6, Treated - Control [3, 15]: −0.61 × 10^6
- decrease in the number of living cells as compared to the control ([3]; HCC38, 16.52 ug/ml p1978, 48 hours, t=−3.08, p<0.05): 37.9%
- Live growth rate, Treated [3, 16]: 2.29 10^4 cells/hour
- Total growth rate, Treated [3, 16]: 2.16 10^4 cells/hour
